Results on four compounds are retold here after patent US20170008888A1 (KYORIN PHARMACEUTICAL CO., LTD., priority 2014, published 2017).

Assay [1] concerns collagen-induced arthritis mouse model. The assay can be described thus: Collagen-induced arthritis (CIA) mouse model: histopathology of tibiofemoral and tarsal/phalangeal joints. Type of assay: in vivo, mouse (DBA/1J).
A further assay relates to MV-4-11 cells. The assay can be described thus: MV-4-11 proliferation EC50 assay (CellTiter-Glo). To be noted: Homo sapiens, MV4-11, 48 h, read-out: MV-4-11 proliferation EC50, ave. ± S.D. In kind it is cell-based. The procedure: Human biphenotypic B myelomonocytic leukemia MV-4-11 cells (ATCC, Manassas, Va.) were treated with test compounds at 2e5 cells/ml in IMDM medium containing 10% (v/v) FBS (Life Technologies, Grand Island, N.Y.) and 1×Pen/Strep Amphotericin B (Lonza, Allendale, N.J.). Compounds were tested at 25 μM down by ⅓ in a 9 point serial dilution series. Cells were incubated for 48 h at 37° C. in a humidified atmosphere at 5% CO2. MV-4-11 cell proliferation was then indirectly determined via cellular ATP content using the CellTiter-Glo® Luminescent Cell Viability Assay (Promega, Madison, Wis.) as per the manufacturer's instructions. Briefly, experimental plates were equilibrated at room temperature for 30 minutes. An equal volume of CellTiter-Glo® reagent was added to each well and incubated for 15 minutes at room temperature. Luminescent signal was read using the Wallac 1420 Victor^2 multilabel microplate reader (Perkin Elmer, Waltham, Mass.). EC50 values were determined using GraphPad Prism software v5.04.

Assay [2] has as its system Asthmatic lung fibroblasts. The assay can be described thus: TGF-β-induced fibrotic response (α-SMA expression) in asthmatic lung fibroblasts. In kind it is cell-based. To be noted: Homo sapiens, Fibroblast; 2 ng/ml TGF-β1, 48 h; Western blot; read-out: Inhibition of α-SMA expression, EC50 (μM), Asthmatic lung fibroblasts. The procedure: Nontransformed, human fetal lung fibroblasts (HFL-1) were obtained from ATCC (Manassas, Va.) and maintained in F12K media containing 10% (v/v) charcoal-dextran treated, heat inactivated FBS (Omega Scientific, Tarzana, Calif.). Primary lung fibroblasts isolated from a patient diagnosed with asthma were obtained from Lonza (Allendale, N.J.) and maintained in FGM-2 fibroblast growth medium (Lonza). Cells were seeded at a density to provide 50-60% confluence after an overnight incubation at 37° C. in a humidified atmosphere at 5% CO2. […] Protein content was determined using the Bio-Rad Dc Protein kit (Bio-Rad Laboratories, Hercules, Calif.), and normalized prior to adding an equal volume of 2× Laemmli sample buffer (Sigma). Proteins in the whole cell lysates were resolved via SDS-PAGE gel electrophoresis, and α-SMA was detected via Western blot analysis using a rabbit anti-human α-SMA polyclonal antibody (Abcam, Cambridge, Mass.). α-SMA signal was normalized to the signal of β-actin as detected using mouse anti-human […] antibody (Cell Signaling Technology). DyLight 680 and 800 conjugated secondary antibodies were used and the infrared signals were detected using the Odyssey Imaging System (LI-COR Biotechnology, Lincoln, Nebr.).

Assay [3] deals with primary human keratinocytes. The assay can be described thus: IL-17A-stimulated cytokine response by primary human keratinocytes. In kind it is cell-based. As to conditions: Keratinocyte, 200 ng/ml IL-17A, 48 h. The procedure:
Primary human keratinocytes were obtained from Life Technologies (Grand Island, N.Y.) and maintained in growth supplemented Defined Keratinocyte-SFM Medium (Life Technologies). Cells were seeded at 2.5e4 cells/ml onto collagen-coated plates and incubated at 37° C. in a humidified atmosphere at 5% CO2 until the cells reached confluence. Cells were pre-treated with test compounds (10 μM down by ⅕ in a 4-point serial dilution series) for 1 h at 37° C. in a humidified atmosphere at 5% CO2. DMSO at a final concentration of 0.1% served as the non-inhibited control. Cells were then stimulated with 200 ng/ml human recombinant IL-17A (eBioscience, San Diego, Calif.) for 48 h. Supernatant was collected and analyzed for cytokine concentrations using the Human Inflammatory Magnetic 5-Plex Panel from Life Technologies according to the manufacturer's instructions. Magnetic beads were measured on the Bio-Plex MAGPIX multiplex reader instrument using the accompanying xPONENT 4.2 acquisition software (Bio-Rad Laboratories, Hercules, Calif.). Data were analyzed via the Bio-Plex Manager software v6.1 (Bio-Rad Laboratories).

The next assay concerns the target T1, TAF1L (Homo sapiens, UniProt Q8IZX4).
T1 construct: made in house; host or cells: E. coli host derived from the BL21 strain (T7 phage lysate)
The assay can be described thus: Bromodomain binding assay: TAF1L. The procedure:
(§1) T7 phage strains displaying bromodomains were grown in parallel in 24-well blocks in an E. coli host derived from the BL21 strain. E. coli were grown to log-phase and infected with T7 phage from a frozen stock (multiplicity of infection=0.4) and incubated with shaking at 32° C. until lysis (90-150 minutes). The lysates were centrifuged (5,000×g) and filtered (0.2 μm) to remove cell debris. […] The liganded beads were blocked with excess biotin and washed with blocking buffer (SeaBlock (Pierce), 1% BSA, 0.05 Tween 20, 1 mM DTT) to remove unbound ligand and to reduce non-specific phage binding. […] Test compounds (T62 and 46) were prepared as 1000× stocks in 100% DMSO and subsequently diluted 1:10 in monoethylene glycol (MEG) to create stocks at 100× the screening concentration (resulting stock solution is 10% DMSO/90% MEG). The compounds were then diluted directly into the assays such that the final concentration of DMSO and MEG were 0.1% and 0.9%, respectively. All reactions were performed in polystyrene 96-well plates in a final volume of 0.135 ml. […] The bromodomain concentration in the eluates was measured by qPCR. Compounds were assayed for binding activity against a panel of 40 bromodomain-containing proteins.

In the next assay the target is T2, TAF1 (Homo sapiens, UniProt P21675).
T2 construct: made in house; host or cells: E. coli host derived from the BL21 strain (T7 phage lysate)
T2 sequence (P21675 1519-1628 limits assumed): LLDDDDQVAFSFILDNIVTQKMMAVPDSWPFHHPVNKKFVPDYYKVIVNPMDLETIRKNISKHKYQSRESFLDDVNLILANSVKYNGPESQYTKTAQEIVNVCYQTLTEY
The assay can be described thus: Bromodomain binding assay: TAF1. Here is the method: as §1

Setting [4] is: Group 3 (n=10): 60 mg/kg PO BID D21-D42.
The mark [5] stands for this setting: Group 3: 60 mg/kg PO BID D21-D42.

SMILES strings stand for the structures. Where two headings read alike, the source gives them in different places.

T1 sequence (Q8IZX4 1517-1626 limits assumed): as the sequence (P21675 1519-1628 limits assumed) above, with V46M, M51V, V102I, L107I counted along it

Turning to `CCOc1cc(C(=O)N2CCC(N3CCCC3)CC2)ccc1Nc1cc2c(cn1)N(C)C(=O)c1ccccc1N2C` [Compound 46, 3-(2-Ethoxy-4-(4-(pyrrolidin-1-yl)piperidine-1-carbonyl)phenylamino)-5,11-dimethyl-5H-benzo[e]pyrido[3,4-b][1,4]diazepin-10(11H)-one], the “histopathology of hind-limb joints (knee, paw/tarsal), in words” value in assay [1] (Day 42, H&E) is on record as “nearly twice as effective as Tofacitinib at protecting the tarsal joints”. Moreover, in assay [1] (setting [4]), the “Animals with normal tarsal joints (% of total n in group)” value is 70% and the “Number of animals with normal tarsal joints” value was found to be 7. In addition, in assay [1] (setting [5]), the “Tibiofemoral joint score: cartilage erosion/ulceration” value was 12.5, the “Tibiofemoral joint score: inflammation” value worked out at 15.0, the “Tibiofemoral joint score: periosteal proliferation/erosion” value amounted to 3.8 and the “Tibiofemoral joint score: synovial hyperplasia” value was determined as 3.0.
On to `CCOc1cc(C(=O)N2CCC(N3CCN(C)CC3)CC2)ccc1Nc1cc2c(cn1)N(C)C(=O)c1ccccc1N2C` [Compound 61], for which the EC50 was determined as 700 ± 50 nM with MV-4-11 cells and 3.69 µM in assay [2].
With `CCOc1cc(C(=O)N2CC[C@@H](N(C)C)C2)ccc1Nc1cc2c(cn1)N(C)C(=O)c1ccccc1N2C` [Compound 115], the EC50 is 2.18 µM in assay [3] (read-out: Inhibition EC50 (μM), GM-CSF); 0.5 µM in assay [3] (read-out: Inhibition EC50 (μM), IL-1β); 0.35 µM in assay [3] (read-out: Inhibition EC50 (μM), IL-6); 0.46 µM in assay [3] (read-out: Inhibition EC50 (μM), IL-8); 1 µM in assay [3] (read-out: Inhibition EC50 (μM), TNF-α); 1.37 µM in assay [2].
For the compound `CCOc1cc(C(=O)N[C@H]2CC[C@H](O)CC2)ccc1Nc1cc2c(cn1)N(C)C(=O)c1ccccc1N2C` [Compound T62], the Kd was 19000 nM at TAF1L (read-out: Kd (nM) TAF1L), more than 20000 nM on TAF1L (read-out: Kd for binding to TAF1L), 12000 nM at TAF1 (read-out: Kd (nM) TAF1) and more than 20000 nM at TAF1 (read-out: Kd for binding to TAF1).
